Test results as given in the supplement of paper PMC6045584.
± gives the standard deviation of the averaged measurements.

Legend:
[1] = compound: CC(=O)NCC(=O)N1[C@@H]2CC[C@H]1c1ccc(Nc3ncc(C(F)(F)F)c(NC4CCC4)n3)cc12; experiment: surviving fraction relative to DMSO-only wells; higher = less growth inhibition; conditions: exposure time: 5 days
Method in brief: (§1)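 Surviving fraction was calculated by normalising CellTiter-Glo luminescence to the median of DMSO-only wells. Tumour cell lines in log phase were seeded in 384-well plates at 250–500 cells per well, and 24 hours later were exposed continuously for five days to inhibitors at 0.5, 1, 5, 10, 50, 100, 500 and 1000 nM.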

PACLITAXEL [2] = compound: T1, CC(=O)O[C@H]1C(=O)[C@@]2(C)[C@H]([C@H](OC(=O)c3ccccc3)[C@]3(O)C[C@H](OC(=O)[C@H](O)[C@@H](NC(=O)c4ccccc4)c4ccccc4)C(C)=C1C3(C)C)[C@]1(OC(C)=O)CO[C@@H]1C[C@@H]2O [PACLITAXEL]; experiment: as above; conditions: exposure time: 5 days
Method in brief: as §1

[3] = compound: CC(=O)c1c(C)c2cnc(Nc3ccc(N4CCNCC4)cn3)nc2n(C2CCCC2)c1=O; experiment: as above; conditions: exposure time: 5 days
Method in brief: as §1

CAMPTOTHECIN [4] = compound: T2, CC[C@@]1(O)C(=O)OCc2c1cc1n(c2=O)Cc2cc3ccccc3nc2-1 [CAMPTOTHECIN]; experiment: as above; conditions: exposure time: 5 days
Method in brief: as §1

YM155 [5] = compound: T3, COCC[n+]1c2c(n(Cc3cnccn3)c1C)C(=O)c1ccccc1C2=O [YM155]; experiment: as above; conditions: exposure time: 5 days
Method in brief: as §1

GEFITINIB = compound: COc1cc2ncnc(Nc3ccc(F)c(Cl)c3)c2cc1OCCCN1CCOCC1 [GEFITINIB]; experiment: as above; conditions: exposure time: 5 days
Method in brief: as §1

OSI-906 [6] = compound: T4, C[C@]1(O)C[C@@H](c2nc(-c3ccc4ccc(-c5ccccc5)nc4c3)c3c(N)nccn32)C1 [OSI-906]; experiment: as above; conditions: exposure time: 5 days
Method in brief: as §1

CELECOXIB [7] = compound: T5, Cc1ccc(-c2cc(C(F)(F)F)nn2-c2ccc(S(N)(=O)=O)cc2)cc1 [CELECOXIB]; experiment: as above; conditions: exposure time: 5 days
Method in brief: as §1

CARBOPLATIN [8] = compound: T6, O=C(O)C1(C(=O)O)CCC1.[NH2-].[NH2-].[Pt+2] [CARBOPLATIN]; experiment: as above; conditions: exposure time: 5 days
Method in brief: as §1

[9] = compound: CC(=O)NCC(=O)N1[C@@H]2CC[C@H]1c1ccc(Nc3ncc(C(F)(F)F)c(NC4CCC4)n3)cc12; experiment: area under dose-response curve of surviving fraction (unscaled, Aref=0) (surviving fraction x log10(nM)); higher = more resistant; conditions: exposure time: 5 days; dose range 0.5-1000 nM
Method in brief: (§2)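 Surviving fractions were fitted by 3-parameter logistic regression in the drc R package to give dose-response survival curves. They came from tumour cell lines treated for five days with eight inhibitor concentrations from 0.5 to 1000 nM and read by CellTiter-Glo luminescence against DMSO-only wells. The area under the curve is the unscaled activity area. It was calculated over log10 dose with Aref = 0.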

PACLITAXEL [10] = compound: T1, PACLITAXEL; experiment: as above; conditions: exposure time: 5 days; dose range 0.5-1000 nM
Method in brief: as §2

[11] = compound: CC(=O)c1c(C)c2cnc(Nc3ccc(N4CCNCC4)cn3)nc2n(C2CCCC2)c1=O; experiment: as above; conditions: exposure time: 5 days; dose range 0.5-1000 nM
Method in brief: as §2

CAMPTOTHECIN [12] = compound: T2, CAMPTOTHECIN; experiment: as above; conditions: exposure time: 5 days; dose range 0.5-1000 nM
Method in brief: as §2

YM155 [13] = compound: T3, YM155; experiment: as above; conditions: exposure time: 5 days; dose range 0.5-1000 nM
Method in brief: as §2

OSI-906 [14] = compound: T4, OSI-906; experiment: as above; conditions: exposure time: 5 days; dose range 0.5-1000 nM
Method in brief: as §2

CELECOXIB [15] = compound: T5, CELECOXIB; experiment: as above; conditions: exposure time: 5 days; dose range 0.5-1000 nM
Method in brief: as §2

CARBOPLATIN [16] = compound: T6, CARBOPLATIN; experiment: as above; conditions: exposure time: 5 days; dose range 0.5-1000 nM
Method in brief: as §2

## HCC70 BREAST
[1]; 0.5 nM
  surviving fraction: 0.976 ± 0.052
[1]; 1 nM
  surviving fraction: 1.03 ± 0.057
[1]; 5 nM
  surviving fraction: 0.982 ± 0.099
[1]; 10 nM
  surviving fraction: 1.01 ± 0.033
[1]; 50 nM
  surviving fraction: 0.864 ± 0.051
[1]; 100 nM
  surviving fraction: 0.488 ± 0.026
[1]; 500 nM
  surviving fraction: 0.243 ± 0.052
[1]; 1000 nM
  surviving fraction: 0.203 ± 0.036
PACLITAXEL [2]; 0.5 nM
  surviving fraction: 0.937 ± 0.071
PACLITAXEL [2]; 1 nM
  surviving fraction: 0.81 ± 0.07
PACLITAXEL [2]; 5 nM
  surviving fraction: 0.218 ± 0.029
PACLITAXEL [2]; 10 nM
  surviving fraction: 0.102 ± 0.019
PACLITAXEL [2]; 50 nM
  surviving fraction: 0.099 ± 0.032
PACLITAXEL [2]; 100 nM
  surviving fraction: 0.0517 ± 0.014
PACLITAXEL [2]; 500 nM
  surviving fraction: 0.0543 ± 0.015
PACLITAXEL [2]; 1000 nM
  surviving fraction: 0.0647 ± 0.031
[3]; 0.5 nM
  surviving fraction: 1.02 ± 0.051
[3]; 1 nM
  surviving fraction: 0.999 ± 0.056
[3]; 5 nM
  surviving fraction: 1.13 ± 0.032
[3]; 10 nM
  surviving fraction: 1.05 ± 0.034
[3]; 50 nM
  surviving fraction: 1.155 ± 0.0084
[3]; 100 nM
  surviving fraction: 1.08 ± 0.08
[3]; 500 nM
  surviving fraction: 0.983 ± 0.066
[3]; 1000 nM
  surviving fraction: 1.1 ± 0.055
CAMPTOTHECIN [4]; 0.5 nM
  surviving fraction: 0.905 ± 0.12
CAMPTOTHECIN [4]; 1 nM
  surviving fraction: 1.04 ± 0.029
CAMPTOTHECIN [4]; 5 nM
  surviving fraction: 0.958 ± 0.092
CAMPTOTHECIN [4]; 10 nM
  surviving fraction: 0.63 ± 0.044
CAMPTOTHECIN [4]; 50 nM
  surviving fraction: 0.443 ± 0.045
CAMPTOTHECIN [4]; 100 nM
  surviving fraction: 0.385 ± 0.015
CAMPTOTHECIN [4]; 500 nM
  surviving fraction: 0.119 ± 0.061
CAMPTOTHECIN [4]; 1000 nM
  surviving fraction: 0.0573 ± 0.0076
YM155 [5]; 0.5 nM
  surviving fraction: 1.09 ± 0.1
YM155 [5]; 1 nM
  surviving fraction: 1.04 ± 0.11
YM155 [5]; 5 nM
  surviving fraction: 1.01 ± 0.11
YM155 [5]; 10 nM
  surviving fraction: 0.934 ± 0.069
YM155 [5]; 50 nM
  surviving fraction: 0.632 ± 0.049
YM155 [5]; 100 nM
  surviving fraction: 0.515 ± 0.044
YM155 [5]; 500 nM
  surviving fraction: 0.135 ± 0.023
YM155 [5]; 1000 nM
  surviving fraction: 0.068 ± 0.007
GEFITINIB; 0.5 nM
  surviving fraction: 1.03 ± 0.13
GEFITINIB; 1 nM
  surviving fraction: 0.976 ± 0.048
GEFITINIB; 5 nM
  surviving fraction: 1.15 ± 0.14
GEFITINIB; 10 nM
  surviving fraction: 1.02 ± 0.075
GEFITINIB; 50 nM
  surviving fraction: 1.03 ± 0.042
GEFITINIB; 100 nM
  surviving fraction: 1.01 ± 0.088
GEFITINIB; 500 nM
  surviving fraction: 0.815 ± 0.048
GEFITINIB; 1000 nM
  surviving fraction: 0.848 ± 0.068
OSI-906 [6]; 0.5 nM
  surviving fraction: 0.861 ± 0.13
OSI-906 [6]; 1 nM
  surviving fraction: 1.02 ± 0.099
OSI-906 [6]; 5 nM
  surviving fraction: 1.04 ± 0.081
OSI-906 [6]; 10 nM
  surviving fraction: 1.02 ± 0.055
OSI-906 [6]; 50 nM
  surviving fraction: 1.04 ± 0.018
OSI-906 [6]; 100 nM
  surviving fraction: 1.08 ± 0.017
OSI-906 [6]; 500 nM
  surviving fraction: 1 ± 0.053
OSI-906 [6]; 1000 nM
  surviving fraction: 0.924 ± 0.11
CELECOXIB [7]; 0.5 nM
  surviving fraction: 1.07 ± 0.049
CELECOXIB [7]; 1 nM
  surviving fraction: 1.045 ± 0.0081
CELECOXIB [7]; 5 nM
  surviving fraction: 1.08 ± 0.067
CELECOXIB [7]; 10 nM
  surviving fraction: 1.13 ± 0.091
CELECOXIB [7]; 50 nM
  surviving fraction: 1.06 ± 0.044
CELECOXIB [7]; 100 nM
  surviving fraction: 1.04 ± 0.099
CELECOXIB [7]; 500 nM
  surviving fraction: 1.2 ± 0.14
CELECOXIB [7]; 1000 nM
  surviving fraction: 1.18 ± 0.038
CARBOPLATIN [8]; 0.5 nM
  surviving fraction: 1.04 ± 0.049
CARBOPLATIN [8]; 1 nM
  surviving fraction: 1.07 ± 0.078
CARBOPLATIN [8]; 5 nM
  surviving fraction: 1.13 ± 0.14
CARBOPLATIN [8]; 10 nM
  surviving fraction: 1.13 ± 0.05
CARBOPLATIN [8]; 50 nM
  surviving fraction: 1.19 ± 0.064
CARBOPLATIN [8]; 100 nM
  surviving fraction: 0.999 ± 0.049
CARBOPLATIN [8]; 500 nM
  surviving fraction: 1.06 ± 0.082
CARBOPLATIN [8]; 1000 nM
  surviving fraction: 1.02 ± 0.054
[9]
  area under dose-response curve: 2.46
PACLITAXEL [10]
  area under dose-response curve: 0.799
[11]
  area under dose-response curve: 3.53
CAMPTOTHECIN [12]
  area under dose-response curve: 1.9
YM155 [13]
  area under dose-response curve: 2.27
OSI-906 [14]
  area under dose-response curve: 3.29
CELECOXIB [15]
  area under dose-response curve: 3.62
CARBOPLATIN [16]
  area under dose-response curve: 3.56
